Experimental findings from patent publication USRE49735E1 (BRISTOL-MYERS SQUIBB COMPANY, priority 2010, dated 2023) are described below.

Each structure is given as a SMILES string. “And” between values parts separate entries of the source, which are not always exact repeats. Equal entries are not always repeated. Some results are limits rather than exact numbers.

Chain of human mGluR5A (P41594 21-1180 isoform P41594-2): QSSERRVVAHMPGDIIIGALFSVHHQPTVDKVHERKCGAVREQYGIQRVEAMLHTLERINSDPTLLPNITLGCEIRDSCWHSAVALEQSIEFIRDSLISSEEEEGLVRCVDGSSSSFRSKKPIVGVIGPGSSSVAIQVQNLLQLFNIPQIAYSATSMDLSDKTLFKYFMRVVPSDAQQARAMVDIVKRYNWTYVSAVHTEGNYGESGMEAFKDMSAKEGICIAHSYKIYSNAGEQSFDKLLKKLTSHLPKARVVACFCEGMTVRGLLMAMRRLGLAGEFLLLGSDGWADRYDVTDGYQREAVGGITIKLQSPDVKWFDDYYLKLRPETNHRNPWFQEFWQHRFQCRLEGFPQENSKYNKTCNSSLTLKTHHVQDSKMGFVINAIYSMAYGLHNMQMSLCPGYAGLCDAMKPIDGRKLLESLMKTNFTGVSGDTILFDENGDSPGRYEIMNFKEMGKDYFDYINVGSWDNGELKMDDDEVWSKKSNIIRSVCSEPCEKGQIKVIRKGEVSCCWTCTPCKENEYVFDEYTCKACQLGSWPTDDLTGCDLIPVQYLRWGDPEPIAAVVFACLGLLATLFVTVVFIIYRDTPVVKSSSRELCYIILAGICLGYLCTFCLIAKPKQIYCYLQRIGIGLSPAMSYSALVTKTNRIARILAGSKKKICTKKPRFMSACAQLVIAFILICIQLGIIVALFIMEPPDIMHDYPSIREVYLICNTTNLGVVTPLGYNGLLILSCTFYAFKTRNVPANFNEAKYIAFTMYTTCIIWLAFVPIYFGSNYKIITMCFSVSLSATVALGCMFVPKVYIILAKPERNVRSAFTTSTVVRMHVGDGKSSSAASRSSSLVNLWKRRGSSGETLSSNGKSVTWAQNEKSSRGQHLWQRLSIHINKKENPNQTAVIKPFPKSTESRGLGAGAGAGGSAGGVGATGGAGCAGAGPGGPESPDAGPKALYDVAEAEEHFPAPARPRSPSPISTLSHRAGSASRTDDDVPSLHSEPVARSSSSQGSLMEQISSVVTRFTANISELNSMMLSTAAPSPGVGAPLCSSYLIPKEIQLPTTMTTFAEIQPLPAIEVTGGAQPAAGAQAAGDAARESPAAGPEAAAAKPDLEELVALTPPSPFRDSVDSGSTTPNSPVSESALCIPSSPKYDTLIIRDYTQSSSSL

The target of this experiment is human mGluR5A (Homo sapiens, UniProt P41594). As to the kind of experiment: mGluR5 FLIPR Assay. As to conditions: positive modulator activity; HEK293 (ZF) cells with human mGluR5A and rat GLAST; Ca++ response to ~EC10 glutamate. Type of experiment: cell-based. How it is done:
HEK293 (ZF) cells stably transfected with human mGluR5A (pIRES neo) and the rat glutamate-aspartate transporter (GLAST; pIRES puro) are grown in a monolayer culture at 37° C. in 5% CO2 and fed with Minimum Essential Medium (MEM) supplemented with 10% dialysed fetal bovine serum. 24 hours prior to assay, cells are enzymatically dissociated from the culture flask (Trypsin, 0.25%), spun down (1000 rpm, 3 min), resuspended, and plated on Greiner black clear bottomed PDL-coated 384-well plates at a density of 30 thousand cells/well. […] Plates are incubated in dye at 37° C. in 5% CO2 for 60 minutes prior to delivery of test compounds in assay buffer. Test compounds are incubated with cells in the presence of dye for 10 minutes prior to being read on the FLIPR platform (Molecular Devices). A Ca^++ signal is induced in the assay plates via the delivery of an ˜EC10 concentration of the endogenous agonist 1-glutamate; images are acquired at 1 Hz for 100 seconds post-delivery of agonist stimulus. Positive modulator activity (i.e. the ability of test compounds to increase the Ca^++ response to a sub-maximal concentration of agonist) is normalized to a saturating concentration of a known mGluR5 PAM run in each assay plate. An EC50 concentration of test compounds is derived from 4-parameter logistic curve fits of transformed fluoresence data via proprietary software suite.
Broadly, the EC50 is the concentration giving half of the maximal effect. Read a high EC50 as lower potency in that assay. For `Cc1cccc([C@@H]2OC(=O)N[C@@H]2c2cccc(C#Cc3ccccc3)c2)c1` (racemic) [Example 98, cis-4-(3-(phenylethynyl)phenyl)-5-m-tolyloxazolidin-2-one], the EC50 is > 1000 nM.

As to `Cc1cccc([C@@H]2OC(=O)N[C@H]2c2cccc(C#Cc3ccccc3)c2)c1` (racemic) [Example 99, trans-4-(3-(phenylethynyl)phenyl)-5-m-tolyloxazolidin-2-one], the EC50 was < 100 nM. Then `Cc1ccc([C@@H]2OC(=O)N[C@H]2c2cccc(C#Cc3ccccc3)c2)cc1C` (racemic) [Example 100, Trans-5-(3,4-dimethylphenyl)-4-(3-(phenylethynyl)phenyl)oxazolidin-2-one], with 100 to 1000 nM; and `O=C1N[C@@H](c2cccc(C#Cc3ccccc3)c2)[C@H](c2cccs2)O1` (racemic) [Example 103, trans-4-(3-(phenylethynyl)phenyl)-5-(thiophen-2-yl)oxazolidin-2-one], with < 100 nM; and `Cc1ccc([C@@H]2OC(=O)N[C@H]2c2cccc(C#Cc3ccccc3)c2)cc1` (racemic) [Example 106, (±)-(phenylethynyl)phenyl)-5-p-tolyloxazolidin-2-one], with < 100 nM. To `O=C1N[C@H](c2cccc(C#Cc3ccccc3)c2)[C@@H](c2cccc(F)c2)O1` (racemic) [Example 111, Trans-5-(3-fluorophenyl)-4-(3-(phenylethynyl)phenyl)oxazolidin-2-one] belongs < 100 nM; to `O=C1N[C@H](c2ccnc(C#Cc3ccccc3)n2)[C@@H](c2cc(F)ccc2F)O1` (racemic) [Example 270], > 1000 nM; to `O=C1N[C@H](c2cc(C#Cc3ccccc3)ncn2)[C@@H](c2cccc(F)c2)O1` (racemic) [Example 271], > 1000 nM. To `O=C1N[C@H](c2nccc(C#Cc3ccccc3)n2)[C@@H](c2cccc(F)c2)O1` (racemic) [Example 272] belongs > 1000 nM; to `O=C1N[C@H](c2cncc(C#Cc3ccccc3)c2)[C@H](c2ncco2)O1` (racemic) [Example 337, (±)-(4R,5R)-5-(Oxazol-2-yl)-4-(5-(phenylethynyl)pyridin-3-yl)oxazolidin-2-one], 100 to 1000 nM and 688 nM; to `C[C@]1(c2cncc(C#Cc3ccccc3)c2)NC(=O)O[C@H]1c1cc(F)ccc1F` (racemic) [Example 405, (+/−)-5-(2,5-Difluorophenyl)-4-methyl-4-(5-(phenylethynyl)pyridin-3-yl)oxazolidin-2-one], < 100 nM.

With `O=C1N[C@@H](c2cccc(C#Cc3ccccc3)c2)[C@H](c2cccnc2)O1` (relative stereo) [Example 116, Trans-4-(3-(phenylethynyl)phenyl)-5-(pyridin-3-yl)oxazolidin-2-one], the EC50 is < 100 nM.

With `COc1cccc([C@@H]2OC(=O)N[C@@H]2c2cccc(C#Cc3ccccc3)c2)c1` (single isomer, unassigned) [Example 3], the EC50 is 100 to 1000 nM and 283 nM. To `COc1cccc([C@H]2OC(=O)N[C@H]2c2cccc(C#Cc3ccccc3)c2)c1` (single isomer, unassigned) [Example 4] belongs > 30000 nM; to `COc1cccc([C@H]2OC(=O)N[C@@H]2c2cccc(C#Cc3ccccc3)n2)c1` (single isomer, unassigned) [Example 5], < 100 nM; to `COc1cccc([C@@H]2OC(=O)N[C@H]2c2cccc(C#Cc3ccccc3)n2)c1` (single isomer, unassigned) [Example 6], > 1000 nM. To `O=C1N[C@H](c2cccc(C#Cc3ccccc3)n2)[C@@H](c2ccccc2)O1` (single isomer, unassigned) [Example 10] belongs < 100 nM.

`O=C1N[C@@H](c2cccc(C#Cc3ccccc3)n2)[C@H](c2ccccc2)O1` (single isomer, unassigned) [Example 11]: the EC50 was > 1000 nM. To `O=C1N[C@@H](c2cccc(C#Cc3cccc(F)c3)n2)[C@H](c2ccccc2)O1` (single isomer, unassigned) [Example 13] belongs > 1000 nM; to `O=C1N[C@H](c2cccc(C#Cc3ccccc3F)n2)[C@@H](c2ccccc2)O1` (single isomer, unassigned) [Example 14], > 1000 nM; to `O=C1N[C@@H](c2cccc(C#Cc3ccccc3F)n2)[C@H](c2ccccc2)O1` (single isomer, unassigned) [Example 15], > 1000 nM.

On to `O=C1N[C@H](c2cccc(C#Cc3ccc(F)cc3)n2)[C@@H](c2ccccc2)O1` (single isomer, unassigned) [Example 16], for which the EC50 was < 100 nM. To `O=C1N[C@@H](c2cccc(C#Cc3ccc(F)cc3)n2)[C@H](c2ccccc2)O1` (single isomer, unassigned) [Example 17] belongs > 1000 nM.

Consider `O=C1N[C@H](c2cc(C#Cc3ccccc3)ccn2)[C@@H](c2ccccc2)O1` (single isomer, unassigned) [Example 18], for which the EC50 was > 30000 nM. Regarding `O=C1N[C@@H](c2cc(C#Cc3ccccc3)ccn2)[C@H](c2ccccc2)O1` (single isomer, unassigned) [Example 19], the EC50 was > 1000 nM. To `O=C1N[C@H](c2cccc(C#Cc3ccccn3)n2)[C@@H](c2ccccc2)O1` (single isomer, unassigned) [Example 24] belongs > 1000 nM; to `O=C1N[C@@H](c2cccc(C#Cc3ccccn3)n2)[C@H](c2ccccc2)O1` (single isomer, unassigned) [Example 25], > 1000 nM; to `O=C1N[C@H](c2cccc(C#Cc3cccnc3)n2)[C@@H](c2ccccc2)O1` (single isomer, unassigned) [Example 26], 100 to 1000 nM and 367 nM. Then `O=C1N[C@@H](c2cccc(C#Cc3cccnc3)n2)[C@H](c2ccccc2)O1` (single isomer, unassigned) [Example 27], with > 1000 nM.

Turning to `COc1cccc([C@@H]2OC(=O)N[C@H]2c2cncc(C#Cc3ccccn3)c2)c1` (single isomer, unassigned) [Example 28], the EC50 was > 1000 nM. Then `COc1cccc([C@H]2OC(=O)N[C@@H]2c2cncc(C#Cc3ccccn3)c2)c1` (single isomer, unassigned) [Example 29], with > 1000 nM. On to `COc1cccc([C@@H]2OC(=O)N[C@H]2c2cncc(C#Cc3csc(C)n3)c2)c1` (single isomer, unassigned) [Example 30], for which the EC50 is > 1000 nM. Then `COc1cccc([C@H]2OC(=O)N[C@@H]2c2cncc(C#Cc3csc(C)n3)c2)c1` (single isomer, unassigned) [Example 31], with > 1000 nM; and `COc1cccc([C@@H]2OC(=O)N[C@H]2c2cncc(C#Cc3ccccc3)c2)c1` (single isomer, unassigned) [Example 32], with > 1000 nM.

For `COc1cccc([C@H]2OC(=O)N[C@@H]2c2cncc(C#Cc3ccccc3)c2)c1` (single isomer, unassigned) [Example 33], the EC50 was < 100 nM. Then `COc1cccc([C@H]2OC(=O)N[C@@H]2c2ccnc(C#Cc3ccccc3)c2)c1` (single isomer, unassigned) [Example 36], with > 1000 nM; and `COc1cccc([C@@H]2OC(=O)N[C@H]2c2ccnc(C#Cc3ccccc3)c2)c1` (single isomer, unassigned) [Example 37], with < 100 nM; and `O=C1N[C@H](c2cncc(C#Cc3ccccc3)c2)[C@@H](c2ccccc2)O1` (single isomer, unassigned) [Example 38], with > 1000 nM. To `O=C1N[C@@H](c2cncc(C#Cc3ccccc3)c2)[C@H](c2ccccc2)O1` (single isomer, unassigned) [Example 39] belongs < 100 nM; to `O=C1N[C@@H](c2cncc(C#Cc3ccccc3)c2)[C@H](c2ccc(F)cc2)O1` (single isomer, unassigned) [Example 40], > 1000 nM; to `O=C1N[C@H](c2cncc(C#Cc3ccccc3)c2)[C@@H](c2ccc(F)cc2)O1` (single isomer, unassigned) [Example 41], < 100 nM. As for `O=C1N[C@@H](c2cncc(C#Cc3cccnc3)c2)[C@H](c2ccc(F)cc2)O1` (single isomer, unassigned) [Example 42], the EC50 is > 1000 nM. To `O=C1N[C@H](c2cncc(C#Cc3cccnc3)c2)[C@@H](c2ccc(F)cc2)O1` (single isomer, unassigned) [Example 43] belongs < 100 nM; to `O=C1N[C@@H](c2cncc(C#Cc3cncc(F)c3)c2)[C@H](c2ccc(F)cc2)O1` (single isomer, unassigned) [Example 44], > 1000 nM; to `O=C1N[C@H](c2cncc(C#Cc3cncc(F)c3)c2)[C@@H](c2ccc(F)cc2)O1` (single isomer, unassigned) [Example 45], < 100 nM and 3.8 nM. In the case of `O=C1N[C@H](c2cccc(C#Cc3ccccc3)c2)[C@@H](c2ccccc2)O1` (single isomer, unassigned) [Example 95], the EC50 was < 100 nM. `O=C1N[C@@H](c2cccc(C#Cc3ccccc3)c2)[C@H](c2ccccc2)O1` (single isomer, unassigned) [Example 96] gave a 50% effective concentration (EC50) of 100 to 1000 nM. To `Cc1ccc([C@@H]2OC(=O)N[C@H]2c2cccc(C#Cc3ccccc3)c2)cc1C` (single isomer, unassigned) [Example 102] belongs > 1000 nM.
